Data as given in patent publication US20100120788A1, “IDENTIFICATION OF POLYNUCLEOTIDES FOR […] OF COMPOUNDS THAT […] WITH AND/OR MODULATE PROTEIN TYROSINE KINASES AND/OR PROTEIN TYROSINE KINASE […] IN PROSTATE CELLS” (Bristol-Myers Squibb Company, priority 2007, published 2010).

Assays:
uPA protein = uPA protein level in plasma of mice bearing PC3 xenograft tumors (ELISA); format: in vivo, nu/nu athymic mice; conditions: 30 mg/kg orally twice a day; following first week of treatment
Description: (§1) FIG. 5. […] Xenograft tumors were established subcutaneously in nu/nu athymic mice. The mice were divided into three groups each with 8 mice after tumors had reached approximately 200 mg. […] Dasatinib was administered orally twice a day on a 5-day-on 2-day-off schedule for 20 doses. The tumor size measurement and blood sampling were performed prior to treatment and weekly for two weeks after treatment initiation. […] Experiments were performed as described in Example 2.
(§2) The mice were divided into three groups each with 8 mice after tumors had reached approximately 200 mg. […] Dasatinib was administered orally twice a day on a 5-day-on 2-day-off schedule for 20 doses. The tumor size measurement and blood sampling were performed prior to treatment and weekly for two weeks after treatment initiation. Tumor weight was determined using the following equation: tumor weight=(length*width^2)/2.

PC3 xenograft tumors = assay: PC3 xenograft tumor growth; format: in vivo, nu/nu athymic mice; conditions: 15 or 30 mg/kg orally twice a day, 5-day-on 2-day-off, 20 doses
Description: as §1, §2

16 prostate cell lines = assay: IC50 grouping of the panel of prostate cell lines (MTS); format: cell-based; conditions: Homo sapiens
Description: Based on the IC50s, cell lines were classified into two groups: 11 cell lines with IC50 lower than 200 nM were designated as sensitive group, and 5 cell lines with IC50 at least greater than 2 μM were considered as resistant group. The separation of these two groups was quite well, and the sensitive/resistant demarcation of 200 nM is within the peak range of BMS-A plasma concentrations in patients treated with the doses near the maximum tolerated dose.
The effect of BMS-A (dasatinib) treatment on cell proliferation was measured using a MTS colorimetric method (Promega, Madison, Wis.). The optimum number of cells to seed in 96-well plates to achieve linearity were determined in pilot experiments. Cells were plated at density of 2000-5000 cells/well into 96-well plates and cultured overnight. Cells were then treated with dasatinib at serially diluted concentrations. Three days later, MTS was added to the medium and quantified on a SPECTRAMAX® photometric plate reader (Molecular Devices, Sunnyvale, Calif.) at 490 nm. The results were plotted against drug concentrations and IC50s were calculated using Prism4 software (GraphPad, San Diego, Calif.). […] The mean±standard deviation (SD) were calculated except for cell lines that were highly resistant to the compound where accurate IC50s were hard to obtain. […]

PLAU mRNA = assay: Down-regulation of PLAU mRNA expression by dasatinib; format: cell-based, human; conditions: for reduction of PLAU mRNA expression: 100 nM, 48 hours vs DMSO
From the text: FIG. 3. PLAU gene expression and regulation by dasatinib analyzed at mRNA and protein levels. (A) Differential baseline expression of PLAU gene between resistant (R, in black) and sensitive (S, in red) cell lines. The X-values are the expression level in log2-scale. The resistant cell line expressing high level of PLAU was WPMY1 and the sensitive cell line expressing low level of PLAU was LNCaP. (B) Down-regulation of PLAU mRNA level by dasatinib-treatment in 5 sensitive cell lines. The cells were treated with 100 nM dasatinib (+D) or DMSO (Ctrl) for 48 hours. The p value was 0.048 in paired t-test, indicating a significant reduction of PLAU mRNA following dasatinib treatment. (C) Correlation between dasatinib-induced PLAU mRNA down-regulation with the sensitivity of cell lines to dasatinib. In addition to those 5 sensitive cells, three dasatinib-resistant cell lines 22Rv, MDAPCa2b, and VCaP were also treated with dasatinib same as in FIG. 3B. The extent of PLAU down-regulation by dasatinib (Y-axis) was negatively correlated with the log2IC50 values (X-axis) of these 8 cell lines. (D) Dose-dependent down-regulation of PLAU mRNA expression in PC3 cells. Cells were treated with or without different concentrations of dasatinib for 4 or 24 hours. The PLAU expression level relative to control was shown in Y-axis. (E) Dose-dependent inhibition of secreted uPA protein in PC3 cells by dasatinib but not by TAXOL®. Cells were treated with different doses of dasatinib, TAXOL® or DMSO for 24 hours. The amount of uPA protein secreted into the culture medium by 50,000 viable cells was assessed by ELISA assay.
The down-regulation of PLAU mRNA expression by dasatinib was observed (FIG. 3B).
(§3) AFFYMETRIX® HG-U133v2 gene chips containing ˜22,000 probe sets were used for gene expression profiling (Affymetrix, Santa Clara, Calif.). Total RNA was isolated from the cells using the RNeasy kits (Qiagen, Valencia, Calif.). The quality of the RNA was assessed using an Agilent 2100 Bioanalyzer (Agilent, Santa Clara, Calif.). Ten μg of total RNA was used for the preparation of biotin-labeled cRNA. Chip hybridization, scanning and data acquisition were performed according to the Expression Analysis Technical Manual provided by the manufacturer.
(§4) The raw expression data were normalized using an RMA algorithm and analyzed in PARTEK® Discovery Suite software (Partek, St Louis, Mo.). Two statistical analyses including 1-way ANOVA for comparison of gene expression between sensitive and resistant cell line groups, and Pearson correlation between gene expression level and log2IC50 values were performed to identify genes whose baseline expression levels correlated with the sensitivity to dasatinib in 16 prostate cell lines (p value<0.05 in both analyses). […] ESTs and gene duplicates were eliminated from the final list. Gene expression profiles of drug treated (100 nM for 2 days) cell lines were compared with those of DMSO control using paired t-test (p value<0.05). Clustering analysis was performed using GeneCluster software and heatmaps were generated with red and green indicating high or low expression respectively.

[1] = tested on: PWR1E, RWPE2, PC3, DU145 and LNCaP cells; assay: Microarray gene expression profiling of drug-treated vs mock-treated cell lines (genes modulated by BMS-A); format: cell-based, human
Description: as §3, §4

[2] = 100 nM for 2 days vs DMSO control, paired t-test p<0.05, 5 sensitive cell lines

SMILES: Cc1nc(Nc2ncc(C(=O)Nc3c(C)cccc3Cl)s2)cc(N2CCN(CCO)CC2)n1 [BMS-A, N-(2-chloro-6-methylphenyl)-2-[[6-[4-(2-hydroxyethyl)-1-piperazinyl]-2-methyl-4-pyrimidinyl]amino]-5-thiazolecarboxamide]
- reduction of plasma uPA level (uPA protein): ~30%
- PC3 xenograft tumor growth (PC3 xenograft tumors): inhibited
- IC50 (16 prostate cell lines; 5 cell lines considered as resistant group): > 2000 nM
- IC50 (16 prostate cell lines; 11 cell lines designated as sensitive group): < 200 nM
- reduction of PLAU mRNA expression (PLAU mRNA; DU145 cells): approximately 50%
- reduction of PLAU mRNA expression (PLAU mRNA; LNCaP cells): showed a reduction
- reduction of PLAU mRNA expression (PLAU mRNA; PC3 cells): approximately 50%
- reduction of PLAU mRNA level, multiple-dose treatment study (PLAU mRNA; PC3 cells, 4 h, all doses vs untreated control): minimal
- reduction of PLAU mRNA level, multiple-dose treatment study (PLAU mRNA; PC3 cells, 24 h, dose-dependent): dramatic
- reduction of PLAU mRNA expression (PLAU mRNA; PWR1E cells (CK5-expressing)): relatively mild reduction
- reduction of PLAU mRNA expression (PLAU mRNA; RWPE2 cells (CK5-expressing)): relatively mild reduction
- Modulated by BMS-A: ANXA3 (annexin A3) expression [1, 2]: Decreased
- Modulated by BMS-A: ARNTL2 expression [1, 2]: Decreased
- Modulated by BMS-A: AXL expression [1, 2]: Decreased
- Modulated by BMS-A: CST6 (cystatin E/M) expression [1, 2]: Decreased
- Modulated by BMS-A: EREG (epiregulin) expression [1, 2]: Decreased
- Modulated by BMS-A: FHL2 expression [1, 2]: Decreased
- Modulated by BMS-A: LAMC2 (laminin, gamma 2) expression [1, 2]: Decreased
- Modulated by BMS-A: PLAU (plasminogen activator, urokinase) expression [1, 2]: Decreased
- Modulated by BMS-A: SCEL (sciellin) expression [1, 2]: Decreased
- Modulated by BMS-A: ZBED2 expression [1, 2]: Decreased
- Modulated by BMS-A (p < 0.05): AXL expression ([1]; gene AXL receptor tyrosine kinase (AXL), probe 202686_s_at, Gene No. 52, expressed in sensitive cell lines): decreased
- Modulated by BMS-A (p < 0.05): ANXA3 expression ([1]; gene annexin A3 (ANXA3), probe 209369_at, Gene No. 8, expressed in sensitive cell lines): decreased
- Modulated by BMS-A (p < 0.05): ARNTL2 expression ([1]; gene aryl hydrocarbon receptor nuclear translocator-like 2 (ARNTL2), probe 220658_s_at, Gene No. 100, expressed in sensitive cell lines): decreased
- Modulated by BMS-A (p < 0.05): CST6 expression ([1]; gene cystatin E/M (CST6), probe 206595_at, Gene No. 15, expressed in sensitive cell lines): decreased
- Modulated by BMS-A (p < 0.05): EREG expression ([1]; gene epiregulin (EREG), probe 205767_at, Gene No. 43, expressed in sensitive cell lines): decreased
- Modulated by BMS-A (p < 0.05): FHL2 expression ([1]; gene four and a half LIM domains 2 (FHL2), probe 202949_s_at, Gene No. 54, expressed in sensitive cell lines): decreased
- Modulated by BMS-A (p < 0.05): LAMC2 expression ([1]; gene laminin, gamma 2 (LAMC2), probe 202267_at, Gene No. 33, expressed in sensitive cell lines): decreased
- Modulated by BMS-A (p < 0.05): PLAU (uPA) expression ([1]; gene plasminogen activator, urokinase (PLAU, also referred to as uPA), probe 205479_s_at, Gene No. 63, expressed in sensitive cell lines): decreased
- Modulated by BMS-A (p < 0.05): SCEL expression ([1]; gene sciellin (SCEL), probe 206884_s_at, Gene No. 3, expressed in sensitive cell lines): decreased
